Source: ChEMBL document CHEMBL1121801, “Salicylamide derivatives related to medroxalol with alpha- and beta-adrenergic antagonist and antihypertension activity” (J Med Chem, 1981)
Values belong to the molecule of their own block, whether it stands above or below them.

What was measured:
Rattus norvegicus [1] = assay: Antihypertensive activity in spontaneously hypertensive rats(SHR) at 50 mg/kg peroral dose after 1 h, expressed as decrease in systolic blood pressure; format: functional, Artery; settings: route oral
[2] = target: T1, Adrenergic receptor alpha-1 (Homo sapiens, UniProt P35348+P25100+P35368); assay: In vitro blocking activity against alpha adrenergic receptor, isolated from rabbit aortic strip; format: protein assay, Oryctolagus cuniculus
T1 sequence (P35348 whole entry): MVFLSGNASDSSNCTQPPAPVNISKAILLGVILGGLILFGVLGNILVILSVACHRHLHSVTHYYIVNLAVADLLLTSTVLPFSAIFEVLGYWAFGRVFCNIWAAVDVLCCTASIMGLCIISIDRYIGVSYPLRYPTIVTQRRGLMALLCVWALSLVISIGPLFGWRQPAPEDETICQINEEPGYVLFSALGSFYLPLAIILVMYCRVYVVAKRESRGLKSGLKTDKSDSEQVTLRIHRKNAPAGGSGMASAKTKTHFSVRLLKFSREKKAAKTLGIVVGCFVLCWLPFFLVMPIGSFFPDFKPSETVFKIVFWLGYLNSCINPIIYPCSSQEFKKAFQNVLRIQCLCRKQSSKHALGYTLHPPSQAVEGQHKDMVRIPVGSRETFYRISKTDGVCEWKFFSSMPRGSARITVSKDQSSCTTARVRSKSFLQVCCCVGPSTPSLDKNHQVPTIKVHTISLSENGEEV
T1 sequence (P25100 whole entry): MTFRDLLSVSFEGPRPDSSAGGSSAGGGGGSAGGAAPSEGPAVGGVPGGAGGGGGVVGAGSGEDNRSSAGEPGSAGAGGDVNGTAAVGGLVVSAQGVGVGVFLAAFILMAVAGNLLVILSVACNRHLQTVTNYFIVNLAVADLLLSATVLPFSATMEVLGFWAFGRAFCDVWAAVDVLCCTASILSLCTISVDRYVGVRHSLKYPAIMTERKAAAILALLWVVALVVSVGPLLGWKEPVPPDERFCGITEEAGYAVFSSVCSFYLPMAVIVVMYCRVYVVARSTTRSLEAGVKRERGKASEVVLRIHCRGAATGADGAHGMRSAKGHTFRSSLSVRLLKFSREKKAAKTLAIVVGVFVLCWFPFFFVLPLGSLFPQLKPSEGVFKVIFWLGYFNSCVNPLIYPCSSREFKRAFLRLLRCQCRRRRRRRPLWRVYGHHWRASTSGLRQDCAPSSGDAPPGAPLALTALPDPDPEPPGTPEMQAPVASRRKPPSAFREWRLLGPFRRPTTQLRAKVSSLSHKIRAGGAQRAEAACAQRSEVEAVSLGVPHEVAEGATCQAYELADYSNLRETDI
T1 sequence (P35368 whole entry): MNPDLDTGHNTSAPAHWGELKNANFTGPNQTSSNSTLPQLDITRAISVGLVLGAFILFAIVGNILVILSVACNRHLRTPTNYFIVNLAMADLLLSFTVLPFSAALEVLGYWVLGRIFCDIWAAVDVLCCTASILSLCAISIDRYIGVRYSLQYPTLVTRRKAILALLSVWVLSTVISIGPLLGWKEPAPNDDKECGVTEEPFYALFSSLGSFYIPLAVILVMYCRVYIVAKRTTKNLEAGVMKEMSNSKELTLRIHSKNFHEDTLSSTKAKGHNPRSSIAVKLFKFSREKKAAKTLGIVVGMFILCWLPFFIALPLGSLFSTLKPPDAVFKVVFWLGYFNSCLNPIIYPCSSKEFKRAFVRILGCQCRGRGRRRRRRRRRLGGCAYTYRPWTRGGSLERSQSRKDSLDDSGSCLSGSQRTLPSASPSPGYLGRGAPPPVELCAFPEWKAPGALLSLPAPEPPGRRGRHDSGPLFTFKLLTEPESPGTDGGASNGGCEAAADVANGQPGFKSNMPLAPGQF

Oryctolagus cuniculus = species: Oryctolagus cuniculus; assay: Ratio of pA2 for beta-adrenergic receptor to that of alpha-adrenergic receptor
Adrenergic receptor beta = Adrenergic receptor beta (Homo sapiens, UniProt P08588+P07550+P13945); assay: In vitro blocking activity against beta adrenergic receptor, isolated from guinea pig atria; format: protein assay
Cavia porcellus = species: Cavia porcellus; assay: spasmolytic activity in isolated guinea pig ileum preparation;- log KB; (Bacl2); format: functional, organism-based; settings: read-out: pA2 (converted)
Rattus norvegicus [3] = assay: Antihypertensive activity in spontaneously hypertensive rats(SHR) at 50 mg/kg peroral dose after 4 h, expressed as decrease in systolic blood pressure; format: functional, Artery; settings: route oral

Structure (SMILES): CC(CCc1ccc2c(c1)OCO2)NCC(O)c1ccc(O)c(C(=O)O)c1.Cl (centres undefined)
BP decrease (Rattus norvegicus [1]): 6 mmHg
pA2 [2]: 5.2
Ratio (Oryctolagus cuniculus): 0.8
pA2 (Adrenergic receptor beta): 5.1
Kb (Cavia porcellus): > 100 µM
BP decrease (Rattus norvegicus [3]): 5 mmHg

Structure (SMILES): Cl.NC(=O)c1cc(C(O)CN2CCN(c3ccccc3)CC2)ccc1O (centres undefined)
BP decrease (Rattus norvegicus [1]): 7 mmHg
pA2 [2]: 7.04
pA2 (Adrenergic receptor beta): 4.19
BP decrease (Rattus norvegicus [3]): 9 mmHg

Structure (SMILES): COc1ccc(C(O)CN2CCN(c3ccccc3OC)CC2)cc1C(N)=O.Cl (centres undefined)
BP decrease (Rattus norvegicus [1]): 56 mmHg
pA2 [2]: 6.8
Ratio (Oryctolagus cuniculus): 0.04
pA2 (Adrenergic receptor beta): 5.41
Kb (Cavia porcellus): 33.1 µM
BP decrease (Rattus norvegicus [3]): 46 mmHg

Structure (SMILES): CC(C)NCC(O)COc1cccc2ccccc12.Cl (centres undefined) [PROPRANOLOL HYDROCHLORIDE]
BP decrease (Rattus norvegicus [1]): 28 mmHg
BP decrease (Rattus norvegicus [3]): 46 mmHg

Structure (SMILES): COc1ccc(N2CCN(CC(O)c3ccc(O)c(C(N)=O)c3)CC2)cc1.Cl.Cl (centres undefined)
BP decrease (Rattus norvegicus [1]): 10 mmHg
pA2 [2]: 6.13
Ratio (Oryctolagus cuniculus): 0.5
pA2 (Adrenergic receptor beta): 5.84
Kb (Cavia porcellus): > 52.5 µM
BP decrease (Rattus norvegicus [3]): 7 mmHg

Structure (SMILES): CNC(=O)c1cc(C(O)CN2CCN(c3ccc(OC)cc3)CC2)ccc1O.Cl (centres undefined)
BP decrease (Rattus norvegicus [1]): 20 mmHg
pA2 [2]: 5.47
Ratio (Oryctolagus cuniculus): 0.2
pA2 (Adrenergic receptor beta): 5.17
Kb (Cavia porcellus): 15.1 µM
BP decrease (Rattus norvegicus [3]): 14 mmHg

Structure (SMILES): Cc1ccccc1N1CCN(CC(O)c2ccc(O)c(C3N=NN=N3)c2)CC1 (centres undefined)
BP decrease (Rattus norvegicus [1]): 48 mmHg
pA2 [2]: 7.56
Ratio (Oryctolagus cuniculus): 0.04
pA2 (Adrenergic receptor beta): 6.14
Kb (Cavia porcellus): > 100 µM
BP decrease (Rattus norvegicus [3]): 47 mmHg

Structure (SMILES): CC(CCc1ccccc1)NC(C)C(O)c1ccc(O)cc1.Cl (centres undefined) [NYLIDRIN HYDROCHLORIDE]
BP decrease (Rattus norvegicus [1]): 54 mmHg
BP decrease (Rattus norvegicus [3]): 51 mmHg

Structure (SMILES): CCOc1ccc(C(O)CN2CCN(c3ccccc3)CC2)cc1C(N)=O.Cl (centres undefined)
BP decrease (Rattus norvegicus [1]): 22 mmHg
pA2 [2]: 6.27
Ratio (Oryctolagus cuniculus): 0.1
pA2 (Adrenergic receptor beta): 5.27
Kb (Cavia porcellus): 21.4 µM
BP decrease (Rattus norvegicus [3]): 19 mmHg

Structure (SMILES): CCNC(=O)c1cc(C(O)CN2CCC(n3c(O)nc4ccccc43)CC2)ccc1O.Cl (centres undefined)
BP decrease (Rattus norvegicus [1]): 22 mmHg
pA2 [2]: 6.63
Ratio (Oryctolagus cuniculus): < 0.06
pA2 (Adrenergic receptor beta): < 5.38
Kb (Cavia porcellus): 6.92 µM
BP decrease (Rattus norvegicus [3]): 51 mmHg

Structure (SMILES): COC(=O)c1cc(C(O)CN2CCN(c3ccccc3C)CC2)ccc1O.Cl (centres undefined)
BP decrease (Rattus norvegicus [1]): 5 mmHg
pA2 [2]: 7.45
Ratio (Oryctolagus cuniculus): 0.2
pA2 (Adrenergic receptor beta): 6.79
Kb (Cavia porcellus): 0.871 µM
BP decrease (Rattus norvegicus [3]): 6 mmHg

Structure (SMILES): Cl.NC(=O)c1cc(C(O)CN2CCN(c3ccccn3)CC2)ccc1O (centres undefined)
BP decrease (Rattus norvegicus [1]): 16 mmHg
pA2 [2]: 6.08
Ratio (Oryctolagus cuniculus): 0.2
pA2 (Adrenergic receptor beta): 5.37
Kb (Cavia porcellus): 126 µM
BP decrease (Rattus norvegicus [3]): 13 mmHg

Structure (SMILES): Cl.NC(=O)c1cc(C(O)CN2CCC(n3c(O)nc4ccccc43)CC2)ccc1O (centres undefined)
BP decrease (Rattus norvegicus [1]): 6 mmHg
pA2 [2]: 6.7
Ratio (Oryctolagus cuniculus): 0.06
pA2 (Adrenergic receptor beta): 5.45
Kb (Cavia porcellus): > 61.7 µM
BP decrease (Rattus norvegicus [3]): 15 mmHg

Structure (SMILES): COc1ccccc1N1CCN(CC(O)c2ccc(O)c(C(N)=O)c2)CC1.Cl (centres undefined)
BP decrease (Rattus norvegicus [1]): 45 mmHg
pA2 [2]: 7.42
Ratio (Oryctolagus cuniculus): 0.1
pA2 (Adrenergic receptor beta): 6.44
Kb (Cavia porcellus): 13.5 µM
BP decrease (Rattus norvegicus [3]): 35 mmHg

Structure (SMILES): COc1ccc(C(O)CN2CCN(c3ccccc3)CC2)cc1C(N)=O.Cl (centres undefined)
BP decrease (Rattus norvegicus [1]): 38 mmHg
pA2 [2]: 6.54
pA2 (Adrenergic receptor beta): < 5
Kb (Cavia porcellus): 64.6 µM
BP decrease (Rattus norvegicus [3]): 25 mmHg

More lines, main results first:

pA2 [2]: 7.21
Ratio (Oryctolagus cuniculus): 0.1
pA2 (Adrenergic receptor beta): 6.33
Structure (SMILES): Cc1ccccc1N1CCN(CC(O)c2ccc(O)c(C(=O)NCC(C)(C)C)c2)CC1.Cl (centres undefined)
BP decrease (Rattus norvegicus [1]): 41 mmHg
Kb (Cavia porcellus): 0.224 µM
BP decrease (Rattus norvegicus [3]): 32 mmHg

pA2 [2]: < 5
pA2 (Adrenergic receptor beta): < 5
Structure (SMILES): NC(=O)c1cc(C(O)CN2CCN(C(=O)c3ccco3)CC2)ccc1O (centres undefined)
BP decrease (Rattus norvegicus [1]): 30 mmHg
Kb (Cavia porcellus): > 100 µM
BP decrease (Rattus norvegicus [3]): 28 mmHg

pA2 [2]: 7.95
Structure (SMILES): CNC(=O)c1cc(C(O)CN2CCN(c3ccccc3OC)CC2)ccc1O.Cl (centres undefined)
BP decrease (Rattus norvegicus [1]): 44 mmHg
Kb (Cavia porcellus): 9.55 µM
BP decrease (Rattus norvegicus [3]): 52 mmHg

pA2 [2]: 6.2
Ratio (Oryctolagus cuniculus): 0.4
pA2 (Adrenergic receptor beta): 5.84
Structure (SMILES): NC(=O)c1cc(C(O)CNCC2COc3ccccc3O2)ccc1O (centres undefined)
BP decrease (Rattus norvegicus [1]): 24 mmHg
Kb (Cavia porcellus): 26.9 µM
BP decrease (Rattus norvegicus [3]): 18 mmHg

pA2 [2]: < 5
pA2 (Adrenergic receptor beta): < 5
Structure (SMILES): COC(=O)c1cc(C(O)CN2CCN(C(=O)c3ccco3)CC2)ccc1O.Cl (centres undefined)
BP decrease (Rattus norvegicus [1]): 37 mmHg
Kb (Cavia porcellus): 17.4 µM
BP decrease (Rattus norvegicus [3]): 15 mmHg

pA2 [2]: < 5
pA2 (Adrenergic receptor beta): 6.55
Structure (SMILES): COC(=O)c1cc(C(O)CNC(C)(C)CCc2ccc3c(c2)OCO3)ccc1O.Cl (centres undefined)
BP decrease (Rattus norvegicus [1]): 41 mmHg
Kb (Cavia porcellus): 2.63 µM
BP decrease (Rattus norvegicus [3]): 39 mmHg

pA2 [2]: 6.33
Ratio (Oryctolagus cuniculus): 3.7
pA2 (Adrenergic receptor beta): 6.9
Structure (SMILES): Cl.NC(=O)c1cc(C(O)CN2CCN(c3cccc(C(F)(F)F)c3)CC2)ccc1O (centres undefined)
BP decrease (Rattus norvegicus [1]): 1 mmHg
Kb (Cavia porcellus): 1.82 µM
BP decrease (Rattus norvegicus [3]): 18 mmHg

pA2 [2]: 5.56
Ratio (Oryctolagus cuniculus): 372
pA2 (Adrenergic receptor beta): 8.1
Structure (SMILES): COC(=O)c1cc(C(O)CNC(C)CCc2ccc3c(c2)OCO3)ccc1OC.Cl (centres undefined)
BP decrease (Rattus norvegicus [1]): 44 mmHg
Kb (Cavia porcellus): 2.75 µM
BP decrease (Rattus norvegicus [3]): 22 mmHg

pA2 [2]: 6.21
Ratio (Oryctolagus cuniculus): 0.5
pA2 (Adrenergic receptor beta): 5.92
Structure (SMILES): COC(=O)c1cc(C(O)CNCC2COc3ccccc3O2)ccc1O.Cl (centres undefined)
BP decrease (Rattus norvegicus [1]): 46 mmHg
Kb (Cavia porcellus): 4.07 µM
BP decrease (Rattus norvegicus [3]): 31 mmHg

pA2 [2]: 6.87
Ratio (Oryctolagus cuniculus): 0.2
pA2 (Adrenergic receptor beta): 6.17
Structure (SMILES): NC(=O)c1cc(C(O)CN2CCN(c3ccc(Cl)cc3)CC2)ccc1O (centres undefined)
BP decrease (Rattus norvegicus [1]): 49 mmHg
Kb (Cavia porcellus): 26.3 µM
BP decrease (Rattus norvegicus [3]): 56 mmHg
